Source: patent publication US4839155A, “Iodotamoxifen derivatives and use for estrogen receptor-positive breast cancer detection and therapy” (National Research Development Corporation, priority 1986, dated 1989)

Legend:
MCF-7 cells = assay: MCF-7 cell growth, % of control; format: cell-based, human; conditions: for activity at 1 µM / activity at 0.1 µM / activity at 0.01 µM: Homo sapiens, MCF7, 37° C., 24 hours, ± standard deviation of four samples, >100 = growth stimulating (estrogenic); for activity at 1 µM: 10^-6 M; for activity at 0.1 µM: 10^-7 M; for activity at 0.01 µM: 10^-8 M; for activity in MCF-7 cell growth tests (in words): evaluation of Table 2, compared with tamoxifen
rat uterine weight = conditions: compared with tamoxifen; K. E. Allen et al. (1980); cited from earlier work
[1] = cited from earlier work
estrogen receptor [2] = conditions: K. E. Allen et al. (1980); cited from earlier work
[3] = test system: estrogen receptor-positive breast cancer; assay: Potency in relation to estrogen receptor-positive breast cancer (summary statement); conditions: compared with tamoxifen
[4] = molecular target: T1, estrogen receptor (MCF-7 whole cells) (Homo sapiens, UniProt P03372); assay: Relative binding affinity (RBA), MCF-7 whole cell assay, inhibition of (3H)estradiol binding; conditions: RBA = [I50](estradiol)/[I50](test compound) × 100; 37° C., 50 minutes, 10^-9 M (3H)estradiol
T1 construct: host or cells: MCF-7 whole cells
T1 sequence (P03372 1-595): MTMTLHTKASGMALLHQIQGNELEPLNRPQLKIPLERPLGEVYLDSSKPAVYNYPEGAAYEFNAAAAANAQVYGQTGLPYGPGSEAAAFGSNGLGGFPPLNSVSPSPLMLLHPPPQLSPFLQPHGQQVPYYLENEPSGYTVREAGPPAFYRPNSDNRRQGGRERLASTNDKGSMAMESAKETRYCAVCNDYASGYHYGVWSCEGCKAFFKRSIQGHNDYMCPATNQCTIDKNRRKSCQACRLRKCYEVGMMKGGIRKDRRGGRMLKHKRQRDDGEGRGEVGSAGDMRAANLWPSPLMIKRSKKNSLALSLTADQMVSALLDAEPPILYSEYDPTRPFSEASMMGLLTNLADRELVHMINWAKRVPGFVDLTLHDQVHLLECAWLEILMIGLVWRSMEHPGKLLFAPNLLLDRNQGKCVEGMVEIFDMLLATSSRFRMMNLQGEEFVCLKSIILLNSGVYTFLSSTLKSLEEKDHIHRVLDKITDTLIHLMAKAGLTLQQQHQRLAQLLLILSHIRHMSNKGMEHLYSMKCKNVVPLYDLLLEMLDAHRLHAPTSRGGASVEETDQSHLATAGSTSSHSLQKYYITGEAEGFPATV
Method: A whole cell assay was then performed using the MCF-7 human breast cancer cell line obtained from the Michigan Cancer Foundation, Detroit, USA. MCF-7 cells were maintained at 37° C. in monolayer culture in closed T-25 dishes in mininal essential medium (MEM) supplemented with L-glutamine (0.6 mg/ml), gentamycin (40 micrograms/ml). penicillin (100 U/ml) streptomycin (100 micrograms/ml) and 10% inactivated fetal calf serum (inactivated for 1 hour at 56° C.). The MCF-7 cells were incubated at 37° C. for 50 minutes with 10^-9 M (^3 H)estradiol in the absence or presence of increasing amounts (10^-10 -10^-5 M) of the test compound or unlabelled estradiol (control). Bound compounds were then extracted with ethanol, and the amounts of estrogen receptor bound (^3 H) estradiol were measured. The RBA values were calculated as for the rat uterine cytosol.
(§1) The higher the values in the rat uterine cytosol test the greater the antiestrogenic effect. In the whole cell test, on the other hand, the estrogen receptors are localised in the cell nucleus and therefore bound to DNA. In the whole cell test, a low value indicating poor binding to cell nucleus ER and consequently low estrogenicity, can be considered favorable.

[5] = molecular target: T2, estrogen receptor (rat uterine cytosol) (Rattus norvegicus, UniProt P06211); assay: Relative binding affinity (RBA), rat uterine cytosol, inhibition of (3H)estradiol binding; conditions: RBA = [I50](estradiol)/[I50](test compound) × 100; 18° C., 30 minutes, 5×10^-9 M (3H)estradiol
T2 construct: from tissue; host or cells: immature rat uterus, cytosol
T2 sequence (P06211 1-600): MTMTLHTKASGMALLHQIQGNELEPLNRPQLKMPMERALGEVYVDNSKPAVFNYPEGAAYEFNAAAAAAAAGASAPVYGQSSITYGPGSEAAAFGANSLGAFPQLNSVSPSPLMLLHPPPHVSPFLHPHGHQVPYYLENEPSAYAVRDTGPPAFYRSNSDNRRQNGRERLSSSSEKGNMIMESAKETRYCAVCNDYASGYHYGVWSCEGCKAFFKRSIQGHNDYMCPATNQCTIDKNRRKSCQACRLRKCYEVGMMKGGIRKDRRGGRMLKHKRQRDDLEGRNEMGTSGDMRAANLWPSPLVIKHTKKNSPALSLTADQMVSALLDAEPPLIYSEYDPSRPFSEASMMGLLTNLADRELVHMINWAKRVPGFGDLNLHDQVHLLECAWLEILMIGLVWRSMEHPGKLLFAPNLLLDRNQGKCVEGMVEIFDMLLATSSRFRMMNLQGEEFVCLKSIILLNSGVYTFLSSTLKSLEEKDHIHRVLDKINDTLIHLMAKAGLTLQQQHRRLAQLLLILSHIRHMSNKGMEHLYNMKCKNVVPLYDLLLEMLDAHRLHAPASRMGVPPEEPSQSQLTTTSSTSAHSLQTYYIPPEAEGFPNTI
Method: Immature rat uterine cytosol was incubated at 18° C. for 30 minutes with 5×10^-9 M (^3 H)estradiol in the absence and presence of increasing amounts (10^-9 -10^-5 M) of the test compound or unlabelled estradiol (control). Unbound compounds were then removed with dextran-coated charcoal, and the amounts of estrogen receptor-bound (^3 H)estradiol were measured.
as §1

estrogen receptor (ER) = conditions: prior art; cited from earlier work
[6] = in vivo; prior art; cited from earlier work
estrogen receptor [7] = conditions: prior art; cited from earlier work

Compound	activity at 1 µM (MCF-7 cells)	activity at 0.1 µM (MCF-7 cells)	activity at 0.01 µM (MCF-7 cells)	also measured
CC/C(=C(/c1ccc(I)cc1)c1ccc(OCCN(C)C)cc1)c1ccccc1 [Z isomer of 4-iodotamoxifen, reference compound]	120 ± 3%	126 ± 6%	99 ± 13%	
CC/C(=C(\c1ccc(Cl)cc1)c1ccc(OCCN(C)C)cc1)c1ccccc1 [chloro]				anti-estrogenic activity, in vivo rat uterine weight tests (rat uterine weight): lower anti-estrogenic activity than tamoxifen; potency compared with tamoxifen (report by K. E. Allen et al.) [1]: of no greater potency than tamoxifen; estrogen receptor affinity in vitro, compared with tamoxifen (estrogen receptor [2]): approximately equiactive
CC/C(=C(\c1ccc(I)cc1)c1ccc(OCCN(C)C)cc1)c1ccccc1 [4-Iodotamoxifen, E 1-[4-(2-dimethylaminoethoxy)phenyl]-1-(4-iodophenyl)-2-phenyl-1-butene]	26 ± 2%	42 ± 6%	115 ± 6%	potency in relation to estrogen receptor-positive breast cancer [3]: greater potency than tamoxifen; RBA (relative binding affinity), MCF-7 whole cells [4]: 0.05; RBA (relative binding affinity), Rat uterine cytosol [5]: 30
CC/C(=C(\c1ccc(Br)cc1)c1ccc(OCCN(C)C)cc1)c1ccccc1 [4-Bromotamoxifen, E 1-[4-(2-dimethylaminoethoxy)phenyl]-1-(4-bromophenyl)-2-phenyl-1-butene]	63 ± 8%	101 ± 8%	130 ± 10%	activity in MCF-7 cell growth tests (in words) (MCF-7 cells): less active than tamoxifen; RBA (relative binding affinity), MCF-7 whole cells [4]: 0.02; RBA (relative binding affinity), Rat uterine cytosol [5]: 3
CC/C(=C(\c1ccc(F)cc1)c1ccc(OCCN(C)C)cc1)c1ccccc1 [fluoro]				anti-estrogenic activity, in vivo rat uterine weight tests (rat uterine weight): lower anti-estrogenic activity than tamoxifen; potency compared with tamoxifen (report by K. E. Allen et al.) [1]: of no greater potency than tamoxifen; estrogen receptor affinity in vitro, compared with tamoxifen (estrogen receptor [2]): approximately equiactive
CC/C(=C(\c1ccc(I)cc1)c1ccc(OCCN2CCCC2)cc1)c1ccccc1 [Pyrrolidino analogue of 4-iodotamoxifen, E-1-[4-(2-(N-pyrrolidino)ethoxy)phenyl]-1-(4-iodophenyl-2-phenyl-1-butene)]	20 ± 2%	27 ± 3%	84 ± 5%	activity in MCF-7 cell growth tests (in words) (MCF-7 cells): particularly active
CC/C(=C(/c1ccc(OCCN(C)C)cc1)c1cccc(I)c1)c1ccccc1 [3-Iodotamoxifen, E 1-[4-(2-dimethylaminoethoxy)phenyl]-1-(3-iodophenyl)-2-phenyl-1-butene]	27 ± 5%	68 ± 2%	100 ± 8%	activity in MCF-7 cell growth tests (in words) (MCF-7 cells): about as active as tamoxifen
CC/C(=C(/c1ccc(Br)cc1)c1ccc(OCCN(C)C)cc1)c1ccccc1 [Z isomer of 4-bromotamoxifen, reference compound]	174 ± 8%	163 ± 4%	110 ± 3%	
CC/C(=C(\c1ccc(I)cc1)c1ccc(OCCN(CC)CC)cc1)c1ccccc1 [E-1-[4-(2-Diethylaminoethoxy)phenyl]-1-(4-iodophenyl)-2-phenyl-1-butene]	23 ± 2%	35 ± 5%	101 ± 7%	
CC/C(=C(\c1ccccc1)c1ccc(OCCN(C)C)cc1)c1ccccc1 [Tamoxifen, Z (1,2-diphenyl)-1-[4-(2-dimethylaminoethoxy)-phenyl]-1-butene]	30 ± 1%	52 ± 1%		affinity for the estrogen receptor (ER) (estrogen receptor (ER)): relatively low affinity
CC/C(=C(\c1ccc(C)cc1)c1ccc(OCCN(C)C)cc1)c1ccccc1 [methyl]				anti-estrogenic activity, in vivo rat uterine weight tests (rat uterine weight): lower anti-estrogenic activity than tamoxifen; estrogen receptor affinity in vitro, compared with tamoxifen (estrogen receptor [2]): approximately equiactive
CC/C(=C(\c1ccc(O)cc1)c1ccc(OCCN(C)C)cc1)c1ccccc1 [4-Hydroxytamoxifen]				glucuronidation of the hydroxyl group followed by excretion [6]: rapid glucuronidation of the hydroxyl group followed by excretion; anti-estrogen potency in vitro (estrogen receptor [7]): potent anti-estrogen
CC/C(=C(\c1ccc(OC)cc1)c1ccc(OCCN(C)C)cc1)c1ccccc1 [4-methoxy derivative]				activity in other tests ([1]; compared with tamoxifen, K. E. Allen et al. (1980)): about the same as tamoxifen
